Data as given in US8906828B2, “Compositions and methods for post emergent weed control with clethodim and gibberellic acid” (Valent U.S.A. Corporation, priority 2012, dated 2014).

Tests used:
Johnsongrass = experiment: Post emergent treatment of plots with abundant Johnsongrass growth, % control (Example 1); type: in vivo, Sorghum halepense
Procedure: In order to determine the efficacy of combinations of clethodim and GA3, numerous treatments were applied to plots in an area with abundant Johnsongrass growth.
The percent control of Johnsongrass plants was evaluated at 7, 18 and 28 days following the treatment. Effect of Clethodim and GA3 Treatments on Johnsongrass (% control).”
The percent control refers to the amount of dead tissue on the plants present. It would be dead plants plus desiccated foliage on partially killed plants.

[1] = tested on: Glyphosate resistant corn; experiment: Clethodim and GA3 treatments on planted glyphosate resistant corn, % control (Example 2); type: in vivo
Procedure: A further study was performed in order to confirm the effect clethodim and GA3 treatments have on corn. Glyphosate resistant corn was planted with a conventional four-row planter. Treatments were applied 28 days after the plantings.
The percent corn control was evaluated at […] days following the treatments. Effect of Clethodim and GA3 Treatments on corn (% control).

Row | SMILES | Johnsongrass % control 7 DAT (Johnsongrass; Clethodim 32 x g ai/a (9 fl oz/a of Selectmax), 0.25% v/v non-ionic surfactant and 2.5 lb/acre AMS, 7 DAT) [%] | Johnsongrass % control 18 DAT (Johnsongrass; Clethodim 32 x g ai/a (9 fl oz/a of Selectmax), 0.25% v/v non-ionic surfactant and 2.5 lb/acre AMS, 18 DAT) [%] | Johnsongrass % control 28 DAT (Johnsongrass; Clethodim 32 x g ai/a (9 fl oz/a of Selectmax), 0.25% v/v non-ionic surfactant and 2.5 lb/acre AMS, 28 DAT) [%] | Corn % control 6 DAT ([1]; Clethodim 32 gm ai/a, 0.25% v/v non-ionic surfactant and 2.5 lb/acre ammonium sulfate, 6 DAT) [%] | Corn % control 13 DAT ([1]; Clethodim 32 gm ai/a, 0.25% v/v non-ionic surfactant and 2.5 lb/acre ammonium sulfate, 13 DAT) [%] | Corn % control 29 DAT ([1]; Clethodim 32 gm ai/a, 0.25% v/v non-ionic surfactant and 2.5 lb/acre ammonium sulfate, 29 DAT) [%] | Effect of GA3 on the activity of clethodim on Johnsongrass (Johnsongrass; seven days following treatment, versus clethodim alone) | Effect of GA3 on the activity of clethodim on corn ([1]; presence of GA3)
1 | CCSC(C)CC1CC(=O)C(C(CC)=NOC/C=C/Cl)=C(O)C1 (centres unmarked) [Clethodim, 2-[1-[[[(2E)-3-chloro-2-propen-1-yl]oxy]imino]propyl]-5-[2-(ethylthio)propyl]-3-hydroxy-2-cyclohexen-1-one] | 37.21 | 85.66 | 89.26 | 48.33 | 88.33 | 96.00 | – | –
2 | C=C1C[C@]23C[C@@]1(O)CC[C@H]2[C@@]12C=C[C@H](O)[C@@](C)(C(=O)O1)[C@H]2[C@@H]3C(=O)O [GA3, Gibberellic acid] | – | – | – | – | – | – | more than doubles | significantly increased
